This is an account of results in patent US10723778B2, “Variants of adrenomedullin and calcitonin gene-related peptide and methods of use” (The Board of Regents of the University of Oklahoma, priority 2015, dated 2020).

Where no end group is shown, it is not given here.

The target in test [1] is T1, AMY1 receptor extracellular domain complex; purified MBP-RAMP1 ECD-(GS)5-CTR ECD-H6 fusion protein (Homo sapiens, UniProt O60894+P30988).
T1 construct: purified MBP-RAMP1 ECD-(GS)5-CTR ECD-H6 fusion protein (200 nM); made in house; host or cells: HEK293T
The test can be described thus: AlphaLISA luminescent peptide binding assay, AMY1 receptor ECD complex. The settings on record: displacement of Biotin-AC413 probe (100 nM), fusion protein 200 nM. As for the experimental part:
A single representative experiment conducted with duplicate samples is shown. Error bars are S.E.M. The ability of the indicated peptides to displace a Biotin-AC413 probe (100 nM) from purified MBP-RAMP1 ECD-(GS)5-CTR ECD-H6 fusion protein (200 nM) was assessed by AlphaLISA® luminescent peptide binding assay (Perkin-Elmer, Waltham, Mass.) as described in Lee et al. (J Biol. Chem (2016) 291:8686-8700). The reactions were incubated for 5 hours at room temperature to reach equilibrium, and the luminescence was measured in white 384-well plates using a BMG LABTECH's POLARstar® Omega plate reader (Ortenberg, Germany). The reaction buffer was 50 mM MOPS, pH 7.4, 150 mM NaCl, 7 mg/ml fatty acid-free BSA and the streptavidin-coated donor beads and MBP-antibody coated acceptor beads were at 15 μg/ml each. IC50 values were calculated using nonlinear regression fitting of the competition curves to a three-parameter, one-site competitive binding equation in GraphPad Prism 5.0 (GraphPad Software, San Diego Calif.).
Background: Alpha assays give light when donor and acceptor beads are brought close together.

Test [2] has as its target T2, RAMP1-CLR ECD (CGRP); purified MBP-RAMP1 ECD-(GS)5-CLR ECD-H6 fusion protein (Homo sapiens, UniProt O60894+Q16602).
T2 construct: MBP-hRAMP1.24-111-(Gly-Ser)5-hCLR.29-144-H6; made in house; host or cells: E. coli
The test can be described thus: Fluorescence polarization (FP) peptide binding competition assay, CGRP receptor ECD complex. The settings on record: for Ki: RAMP1-CLR ECD (CGRP) KI (nM), FP competition, FITC-AM W/W probe 7 nM, fusion protein 15 nM. As for the experimental part: (§1) Fluorescence polarization peptide binding assay. […] The reactions (50 μL) were incubated for 2 hours at room temperature to reach equilibrium, and the anisotropy was measured in black half-area 96-well plates using a BMG LABTECH's POLARstar® Omega plate reader (Ortenberg, Germany). The reaction buffer was 50 mM HEPES, pH 7.5, 150 mM NaCl, 0.5 mg/ml fatty acid-free BSA, 0.5 mM EDTA, 0.5 mM maltose. Ki values were calculated using nonlinear regression fitting of the competition curves to the exact analytical equations of Roehrl et al. (Biochemistry (2004) 43:16056-66) using GraphPad Prism 5.0 (GraphPad Software, San Diego Calif.).
(§2) The ability of the indicated peptides to displace a FITC-Ahx-AM(37-52)NH2 [S45W, Q50W] probe (7 nM) from purified MBP-RAMP1 ECD-(GS)5-CLR ECD-H6 fusion protein (15 nM) was assessed by fluorescence polarization (anisotropy). The reactions were incubated for 2 hours at room temperature to reach equilibrium, and the anisotropy was measured in black half-area 96-well plates using a BMG LABTECH's POLARstar® Omega plate reader (Ortenberg, Germany). The reaction buffer was 50 mM HEPES, pH 7.5, 150 mM NaCl, 0.5 mg/ml fatty acid-free BSA, 0.5 mM EDTA, 0.5 mM maltose. KI values were calculated using nonlinear regression fitting of the competition curves to the exact analytical equations of Roehrl et al. (Biochemistry (2004) 43:16056-66) using GraphPad Prism 5.0 (GraphPad Software, San Diego Calif.).
as §2, with “Single representative experiments conducted with duplicate samples are shown. Error bars are S.E.M. The ability” for “The ability”, “displace a FITC-Ahx-AM(37-52)NH2[S45W, Q50W] probe” for “displace a FITC-Ahx-AM(37-52)NH2 [S45W, Q50W] probe”
A fluorescence polarization/anisotropy (FP) peptide-binding assay was developed using N-terminally FITC-labeled AM(37-52) S45W/Q50W as the probe, hereafter “FITC-AM W/W.” The probe was custom synthesized and HPLC-purified by RS Synthesis. The large size difference between the MBP-RAMP ECD-CLR ECD fusion proteins (˜65 kDa) and the probe (˜2.5 kDa) ensures a significant anisotropy difference between bound and free states of the probe. […] Kd values for the probe at each of the tethered ECD fusion proteins were determined in equilibrium saturation binding experiments (data not shown), and KI values were determined for unlabeled peptides in equilibrium competition experiments (Table 1; FIGS. 2-5). The data were analyzed according to exact analytical equations using non-linear regression curve fitting in GraphPad Prism 5.0 (GraphPad Software) via user-defined equations.
A general note: In fluorescence polarisation assays a small probe gives low polarisation when free and higher when bound to something large.

The target in test [3] is T3, RAMP2-CLR ECD (AM1); purified MBP-RAMP2 ECD [L106R]-(GS)5-CLR ECD-H6 fusion protein (Homo sapiens, UniProt O60895+Q16602, L106R).
T3 construct: MBP-hRAMP2.55-140 [L106R]-(Gly-Ser-Ala)3-hCLR.29-144-H6; made in house; host or cells: E. coli
Kind of test: Fluorescence polarization (FP) peptide binding competition assay, AM1 receptor ECD complex. To be noted: AM1 (RAMP2-CLR ECD) over CGRP (RAMP1-CLR ECD), FP assay. As for the experimental part:
as §1
FIG. 3(A-K) depicts binding of (A) AM-based peptide AM(37-52)NH2, and variant peptide AM(37-52)NH2[S45W, Q50W]; (B) AM-based peptide AM(37-52)NH2, variant peptide AM(37-52)NH2[Q50F], and variant peptide AM(37-52)NH2[Q50W]; (C) variant peptides AM(37-52)NH2[K46L], AM(37-52)NH2[K46M], and AM(37-52)NH2[D39F]; (D) variant peptides AM(37-52)NH2[D39F, K46L, Q50W], AM(37-52)NH2[D39F, K46L, Q50W, Y52F], and AM(37-52)NH2[S45W, K46L, Q50W, Y52F]; (E) variant peptides AM(37-52)NH2[[D39K], AM(37-52)NH2[K46L, Q50W], and AM(37-52)NH2[K46L, Q50W, Y52F]; (F) variant peptides AM(37-52)NH2[S45W, K46M, Q50W, Y52F], and AM(37-52)NH2[S45W, K46W, Q50W, Y52F]; (G) variant peptides AM(37-52)NH2[S45T, K46W, Q50W], AM(37-52)NH2[S45T, K46L, Q50W], and AM(37-52)NH2[S45W, K46L, S48G, Q50W, Y52F]; (H) variant peptide AM(37-52)NH2[S45W, K46L, I47M, Q50W, Y52F]; (I) variant peptides AM(37-52)NH2[S45R, K46W, Q50W], and AM(37-52)NH2[S45R, K46L, Q50W]; (J) variant peptides AM(37-52)NH2[S45R, K46W, S48G, Q50W], AM(37-52)NH2[S45R, K46L, S48G, Q50W], and AM(37-52)NH2[S45R, K46W, I47L, S48G, Q50W]; and (K) variant peptides AM(37-52)NH2[D39W, Q50W], and AM(37-52)NH2[D37V, S45W, K46L, Q50W, Y52F], to the purified AM1 receptor extracellular domain complex. Single representative experiments conducted with duplicate samples are shown. […] The reactions were incubated for 2 hours at room temperature to reach equilibrium, and the anisotropy was measured in black half-area 96-well plates using a BMG LABTECH's POLARstar® Omega plate reader (Ortenberg, Germany). The reaction buffer was 50 mM HEPES, pH 7.5, 150 mM NaCl, 0.5 mg/ml fatty acid-free BSA, 0.5 mM EDTA, 0.5 mM maltose. KI values were calculated using nonlinear regression fitting of the competition curves to the exact analytical equations of Roehrl et al. (Biochemistry (2004) 43:16056-66) using GraphPad Prism 5.0 (GraphPad Software, San Diego Calif.).
as §1, with “Single representative experiments conducted with duplicate samples are shown.” for “Fluorescence polarization peptide binding assay.”, “reactions” for “reactions (50 μL)”, “KI” for “Ki”
A fluorescence polarization/anisotropy (FP) peptide-binding assay was developed using N-terminally FITC-labeled AM(37-52) S45W/Q50W as the probe, hereafter “FITC-AM W/W.” The probe was custom synthesized and HPLC-purified by RS Synthesis. The large size difference between the MBP-RAMP ECD-CLR ECD fusion proteins (˜65 kDa) and the probe (˜2.5 kDa) ensures a significant anisotropy difference between bound and free states of the probe. […] Kd values for the probe at each of the tethered ECD fusion proteins were determined in equilibrium saturation binding experiments (data not shown), and KI values were determined for unlabeled peptides in equilibrium competition experiments (Table 1; FIGS. 2-5).

FVPTDVGPWSF-NH2 [N31D/S34P/K35W/A36S] yielded an IC50 in test [1] of 0.26 µM. Besides, in test [2] (CGRP (RAMP1-CLR ECD) over AM1 (RAMP2-CLR ECD), FP assay), the “Receptor Selectivity, fold for CGRP” value is 1856-fold for CGRP. The same substance showed a Ki in test [2] of 1.32 nM.

The substance DKDNVAPRSKISPFGY-NH2 [Peptide Q50F] gave a Ki in test [2] of 10500 nM. Further, the “Receptor Selectivity, fold for AM1” value in test [3] is listed as 5-fold for AM1.

The IC50 is the concentration that gives 50% inhibition. For orientation: Ki means a dissociation constant, usually derived from enzyme kinetics or from competition with a known ligand. A lower Ki goes with higher affinity.
